Data: PMC4433810 (European journal of medicinal chemistry, 2015)

Assays:
HDAC1 = HDAC1 (Homo sapiens, UniProt Q13547); test: SAMDI mass spectrometry HDAC activity assay, HDAC1; format: biochemical
HDAC8 = biological target: T1, HDAC8 (Homo sapiens, UniProt Q9BY41); test: SAMDI mass spectrometry HDAC activity assay, HDAC8; format: biochemical
T1 sequence (Q9BY41 1-377): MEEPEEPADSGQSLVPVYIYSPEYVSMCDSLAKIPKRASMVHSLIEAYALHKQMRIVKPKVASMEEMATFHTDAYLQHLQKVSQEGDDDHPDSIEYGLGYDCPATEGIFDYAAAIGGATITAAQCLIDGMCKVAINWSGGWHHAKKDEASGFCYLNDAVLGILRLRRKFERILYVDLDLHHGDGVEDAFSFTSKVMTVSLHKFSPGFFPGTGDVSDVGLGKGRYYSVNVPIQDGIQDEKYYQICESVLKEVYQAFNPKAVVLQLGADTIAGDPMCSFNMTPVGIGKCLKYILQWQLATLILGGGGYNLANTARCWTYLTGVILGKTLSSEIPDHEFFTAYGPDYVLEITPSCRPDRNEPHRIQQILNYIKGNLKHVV

HDAC6 = biological target: T2, HDAC6 (Homo sapiens, UniProt Q9UBN7); test: SAMDI mass spectrometry HDAC activity assay, HDAC6; format: biochemical
T2 sequence (Q9UBN7 1-1215): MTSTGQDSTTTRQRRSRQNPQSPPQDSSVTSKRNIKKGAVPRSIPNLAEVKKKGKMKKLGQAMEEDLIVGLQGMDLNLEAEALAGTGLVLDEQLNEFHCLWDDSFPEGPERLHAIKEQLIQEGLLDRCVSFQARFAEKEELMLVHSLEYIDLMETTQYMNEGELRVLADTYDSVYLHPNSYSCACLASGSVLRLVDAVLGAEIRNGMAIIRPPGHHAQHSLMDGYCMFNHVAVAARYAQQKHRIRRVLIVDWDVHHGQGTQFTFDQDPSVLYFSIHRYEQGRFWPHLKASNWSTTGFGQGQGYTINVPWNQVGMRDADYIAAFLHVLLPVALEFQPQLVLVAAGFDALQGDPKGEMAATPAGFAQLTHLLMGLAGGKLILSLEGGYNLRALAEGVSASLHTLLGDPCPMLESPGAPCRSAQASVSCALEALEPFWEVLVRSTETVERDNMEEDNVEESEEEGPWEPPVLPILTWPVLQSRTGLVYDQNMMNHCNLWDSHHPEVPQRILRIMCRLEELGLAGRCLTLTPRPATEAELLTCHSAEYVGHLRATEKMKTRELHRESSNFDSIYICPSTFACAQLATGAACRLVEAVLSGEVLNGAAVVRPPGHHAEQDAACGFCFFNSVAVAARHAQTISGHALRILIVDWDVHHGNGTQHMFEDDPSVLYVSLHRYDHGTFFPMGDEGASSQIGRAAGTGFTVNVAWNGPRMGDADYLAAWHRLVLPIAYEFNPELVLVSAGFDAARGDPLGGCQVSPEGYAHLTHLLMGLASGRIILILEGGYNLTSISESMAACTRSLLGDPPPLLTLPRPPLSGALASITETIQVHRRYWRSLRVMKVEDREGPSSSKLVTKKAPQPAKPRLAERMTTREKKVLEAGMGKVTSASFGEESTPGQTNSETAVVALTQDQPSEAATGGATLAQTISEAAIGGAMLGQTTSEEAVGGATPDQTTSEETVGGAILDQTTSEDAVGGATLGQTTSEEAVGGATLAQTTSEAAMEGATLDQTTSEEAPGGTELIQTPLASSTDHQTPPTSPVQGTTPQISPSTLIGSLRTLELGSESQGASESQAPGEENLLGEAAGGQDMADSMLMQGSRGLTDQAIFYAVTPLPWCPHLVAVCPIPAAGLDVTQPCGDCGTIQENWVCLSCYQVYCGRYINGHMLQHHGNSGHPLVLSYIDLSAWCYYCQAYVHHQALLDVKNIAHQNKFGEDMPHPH

[1] = test system: KB (oral carcinoma) cells, FR (+); test: Cell viability; format: cell-based; conditions: up to 100 μM
[2] = test system: HeLa (cervical carcinoma) cells, FR (+); test: Cell viability; format: cell-based; conditions: up to 100 μM
[3] = test system: histone H4 acetylation (intracellular marker of HDAC1 inhibition) in KB cells; test: Western blot analysis of histone H4 acetylation in KB cells; format: cell-based; conditions: 24 h
[4] = test system: tubulin acetylation (marker of HDAC6 activity) in KB cells; test: Western blot analysis of tubulin acetylation in KB cells; format: cell-based; conditions: 4 h, at IC50 doses and above
[5] = test system: FR (−) lung cancer cell line A549; test: Cell viability; format: cell-based
KB cells = test: Folic acid; format: cell-based; conditions: 25 μM of 11e, absence vs presence of folic acid (250 μM); p < 0.01
[6] = SAHA 2 and 20μM, 11d 50 and 100μM, 11e 30 and 100μM

Chain of HDAC1 (Q13547 whole entry): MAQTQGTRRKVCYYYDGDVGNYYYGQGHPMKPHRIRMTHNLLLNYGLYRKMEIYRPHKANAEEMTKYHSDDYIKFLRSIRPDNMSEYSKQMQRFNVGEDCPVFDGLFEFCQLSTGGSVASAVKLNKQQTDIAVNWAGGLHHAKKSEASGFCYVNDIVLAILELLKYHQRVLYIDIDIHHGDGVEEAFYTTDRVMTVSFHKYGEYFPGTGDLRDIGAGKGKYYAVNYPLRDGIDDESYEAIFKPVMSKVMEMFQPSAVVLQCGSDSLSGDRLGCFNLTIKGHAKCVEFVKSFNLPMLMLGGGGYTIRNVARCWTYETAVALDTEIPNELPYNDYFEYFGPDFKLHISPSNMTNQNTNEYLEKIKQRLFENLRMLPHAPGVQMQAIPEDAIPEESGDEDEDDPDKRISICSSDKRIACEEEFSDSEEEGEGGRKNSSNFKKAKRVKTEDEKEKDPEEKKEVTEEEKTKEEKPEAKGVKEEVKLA

Structure (SMILES) | Acetylated tubulin levels [4] | Histone H4 acetylation [3, 6] | Activity against A549 cells, in words [5] | further results
Nc1nc2ncc(CNc3ccc(C(=O)N[C@@H](CCC(=O)NO)C(=O)O)cc3)nc2c(=O)[nH]1 [compound 6, 2-(4-(((2-Amino-4-oxo-3,4-dihydropteridin-6-yl)methyl)amino)benzamido)-5-(hydroxyamino)-5-oxopentanoic acid] | – | – | – | HDAC1 inhibition, in words (HDAC1): inactive; HDAC8 inhibition, in words (HDAC8): inactive; HDAC6 inhibition, in words (HDAC6): inactive
Nc1nc2ncc(CNc3ccc(C(=O)NO)cc3)nc2c(=O)[nH]1 [compound 7, 4-(((2-Amino-4-oxo-3,4-dihydropteridin-6-yl)methyl)amino)-N-hydroxybenzamide] | – | – | – | Cytotoxicity to KB cells, in words [1]: not cytotoxic; Cytotoxicity to HeLa cells, in words [2]: not cytotoxic; Histone H4 acetylation ([3]; 100 μM, relative to the control): little effect on H4 acetylation
O=C(CCCCCCC(=O)Nc1ccccc1)NO [SAHA, reference compound] | increase in acetylated tubulin levels | dose dependent increases in histone H4 acetylation | – | –
Nc1nc2ncc(CNc3ccc(C(=O)NCCCCCCC(=O)NO)cc3)nc2c(=O)[nH]1 [11d, 4-(((2-Amino-4-oxo-3,4-dihydropteridin-6-yl)methyl)amino)-N-(7-(hydroxyamino)-7-oxoheptyl)benzamide] | increase in acetylated tubulin levels | dose dependent increases in histone H4 acetylation | inactive | –
Nc1nc2ncc(CNc3ccc(C(=O)NCCCCCCCC(=O)NO)cc3)nc2c(=O)[nH]1 [11e, 4-(((2-Amino-4-oxo-3,4-dihydropteridin-6-yl)methyl)amino)-N-(8-(hydroxyamino)-8-oxooctyl)benzamide] | increase in acetylated tubulin levels | dose dependent increases in histone H4 acetylation | inactive | Effect of folic acid on cytotoxicity (viability of KB cells) (KB cells): reduced the cytotoxicity
CN1CCc2c(c3ccccc3n2Cc2ccc(C(=O)NO)cc2)C1 [Tubastatin A, reference compound] | – | – | – | Histone H4 acetylation ([3]; 14 μM): significant increase in H4 acetylation
